From patent publication US20140243401A1, “METHODS OF SCREENING COMPOUNDS THAT ARE CYTOTOXIC TO TUMOR CELLS AND METHODS OF TREATING TUMOR CELLS USING SUCH COMPOUND” (The Johns Hopkins University, priority 2010, published 2014)
Values after ≈ are worked out from the molar mass of the structure shown. Values joined by “and” are separate entries in the source; they are usually repeats but may differ in a detail not shown here. Equal entries are not always repeated.

What was measured:
Type I cytosolic FAS = biological target: T1, Type I cytosolic FAS (Homo sapiens, UniProt P49327); test: Type I cytosolic FAS activity, [14C]malonyl-CoA incorporation into lipid in MCF7 cell lysates; type: biochemical; details: MCF7 human breast cancer cell lysates, read-out: IC50, inhibition of Type I cytosolic FAS activity
T1 construct: incorporation into lipid in MCF7 human breast cancer cell lysates; endogenous in cells; host or cells: MCF7 human breast cancer cell lysate
Excerpt: The invention provides for methods that involve determining and/or measuring Type I and mmFAS activity. Methods of measuring Type I FAS activity are known in the art. (See, e.g., U.S. Pat. Nos. 5,759,837 and 5,981,575, which are hereby incorporated by reference in their entirety). For example, Type I FAS activity may be measured in whole cells by monitoring the incorporation of [14C]acetate into total lipids. In cell lysates, Type I FAS activity may be measured by monitoring the incorporation of [14C] from malonyl CoA into total lipids. Alternatively, Type I FAS activity may be determined using purified enzyme with acetyl CoA and malonyl CoA as substrates by measuring incorporation of radioactivity or measuring oxidation of NADPH spectrophotometrically. To test the inhibition of Type I FAS activity, a test compound is added to the reaction mixture.

mitochondrial FAS [1] = test: 14C-malonate incorporation into lipids of mitochondria isolated from MCF7 cells; type: biochemical, human; details: FIG. 2, vs vehicle
Protocol: (§1) Mammalian mitochondrial FAS activity may be determined in a variety of ways. For example, [14C]malonate may be added to isolated mitochondria, fatty acids are extracted, and then radioactivity is tested. (See Zhang et al., J. Bio. Chem. 278(41): 40067-40074, 2003; Mikolajczyk, J. and Brody, S., Eur. J. Biochem. 187: 431-437, 1990). The mitochondria are purified using methods known in the art. (See Qiagen's Qproteome Mitochondria Isolation Kit; Methods in Enzymology, Vol. 10, Chapter 11, 1967). To test the inhibition of mmFAS activity, a test compound is added to the reaction mixture. Therefore, a test compound may be screened according the methods described herein as follows: (i) isolating mitochondria; (ii) incubating mitochondria with [14C]malonate with and without a test compound; and (iii) determining the quantity of lipids and/or fatty acids produced. By comparing the amount of product in the presence of the test compound to the amount in its absence, the degree of inhibition can be determined.
Mitochondria from MCF7 cells were prepared following manufacturer's protocol (Mitochondria Isolation Kit, Sigma, Saint Louis, Mo.). Rat liver mitochondria were isolated by homogenization with a tissue homogenizer in H-medium (220 mM mannitol, 70 mM sucrose, 2 mM HEPES, and 0.5 g/L of fatty acid free bovine serum albumin, pH 7.4). […]

mitochondrial FAS [2] = test: 14C-malonate incorporation into mitochondrial fatty acids, mitochondria isolated from rat liver; type: biochemical; details: FIG. 3
Protocol: as §1
Mitochondria from MCF7 cells were prepared following manufacturer's protocol (Mitochondria Isolation Kit, Sigma, Saint Louis, Mo.). Rat liver mitochondria were isolated by homogenization with a tissue homogenizer in H-medium (220 mM mannitol, 70 mM sucrose, 2 mM HEPES, and 0.5 g/L of fatty acid free bovine serum albumin, pH 7.4). The homogenate was centrifuged at 1100 g for 3 min and washed twice with H-medium. The supernatants were pooled and centrifuged at 6800 g for 15 min. The pellet was then rinsed again and centrifuged at 3000 g for 3 min. The mitochondria supernatants were saved. The sediments were resuspended in H-medium and centrifuged at 3000 g for 3 min. The mitochondria supernatants were combined and centrifuged at 20,000 g for 15 min. The resulting mitochondria pellet were rinsed and centrifuged again at 20,000 g for 20 min.
Isolated mitochondria (100-200 μg) were mixed with 50 mM TES-KOH (pH 7.2), 10 mM MgCl2, 0.3 M sorbitol, 0.1% BSA, 1 mM each of ATP, ADP, NADH, NADPH, CoA, DTT and 1 μCi of [2-^14C]malonic acid (50 mCi/mmol) in a total volume of 200 μl. The reaction was performed for 30 min at room temperature. C31, Riv7d or vehicle were added at the beginning of this reaction. At the end of 30 minutes, the mitochondria pellet was separated from supernatant by centrifugation at 14000 rpm for 5 min. After washing with 500 μl of 50 mM TES-KOH (pH 7.2) and 0.3 M sorbitol, the mitochondria were incubated in 200 μl of H2O and 20 μl of 10 M KOH for 15 min at 65° C. Then the samples were added with 40 μl of 5 M H2SO4 and 20 μl of 1 mM palmitic acid (in 1 M acetic acid in isopropanol). The ^14C labeled fatty acids were twice extracted with hexane and sent to scintillation counting after drying.

[3] = tested on: SKOV3 human ovarian cancer cells; test: JC-1 staining, mitochondrial membrane potential in SKOV3 cells; type: cell-based; details: SKOV3, drug in DMSO applied 30 min prior to staining
Excerpt: JC-1 staining is an indicator of mitochondrial membrane potential; with this assay, mitochondria within cells stained with this fluorescent dye emit a wavelength in the red spectrum when mitochondrial membrane potential is intact. When mitochondria are depolarized, the wavelength of the spectrum emitted changes to green. Therefore, the ratio of red/green fluorescence will give an indication of the intactness of the membrane potential of mitochondria, and thus mitochondrial function.
The left panels show granular red-staining indicating mitochondria with intact membrane potential is brightest in control, and decreases with increasing concentrations of C31. Conversely, the right panels show the diffuse cytoplasmic green-staining which indicates mitochondrial depolarization, is dimmest in control and brightest at the highest concentration of C31 tested. Drug was solubilized in DMSO and applied for 30 min prior to staining.

Human hepatoma cell line = test: XTT cytotoxicity assay, human hepatoma cell line; type: cell-based; details: 1 human hepatoma cell line, read-out: LC50 (the source's name)
Protocol: Cytotoxicity can be easily measured using XTT assays, which provide an indication of mitochondrial activity. The XTT assay is a non-radioactive alternative for the [^51Cr] release cytotoxicity assay. XTT is a tetrazolium salt that is reduced to a formazan dye only by metabolically active, viable cells. The reduction of XTT is measured spectrophotometrically as OD490-OD650. Thus, cells that are actively metabolizing will form reaction product when subjected to XTT measurement.
For this experiment, cells were cultured under standard culture conditions. MCF7 human breast cancer cells were cultured in DMEM containing 5 mM glucose medium with 10% fetal calf serum, 0.01 mg/ml insulin and 1% penicillin/streptomycin. To measure the cytotoxicity of specific compounds against cancer cells, 9×10^3 MCF7 cells were plated per well in 96-well plates. Following overnight culture, the compounds, dissolved in DMSO, were added to the wells in 1 μl volume at specified concentrations. Vehicle controls were run for each experiment. Each condition was run in triplicate. […] Plates were read at OD490 on a PerkinElmer Victor 1420. […]
Using the XTT assay, LC50 values for C31 were determined for numerous human cancer cell lines and human hepatocytes, as shown in the following table: […]

[4] = alamarBlue assay, primary human hepatocytes; type: cell-based; details: read-out: LC50 (the source's name)

T1 sequence (P49327 whole entry): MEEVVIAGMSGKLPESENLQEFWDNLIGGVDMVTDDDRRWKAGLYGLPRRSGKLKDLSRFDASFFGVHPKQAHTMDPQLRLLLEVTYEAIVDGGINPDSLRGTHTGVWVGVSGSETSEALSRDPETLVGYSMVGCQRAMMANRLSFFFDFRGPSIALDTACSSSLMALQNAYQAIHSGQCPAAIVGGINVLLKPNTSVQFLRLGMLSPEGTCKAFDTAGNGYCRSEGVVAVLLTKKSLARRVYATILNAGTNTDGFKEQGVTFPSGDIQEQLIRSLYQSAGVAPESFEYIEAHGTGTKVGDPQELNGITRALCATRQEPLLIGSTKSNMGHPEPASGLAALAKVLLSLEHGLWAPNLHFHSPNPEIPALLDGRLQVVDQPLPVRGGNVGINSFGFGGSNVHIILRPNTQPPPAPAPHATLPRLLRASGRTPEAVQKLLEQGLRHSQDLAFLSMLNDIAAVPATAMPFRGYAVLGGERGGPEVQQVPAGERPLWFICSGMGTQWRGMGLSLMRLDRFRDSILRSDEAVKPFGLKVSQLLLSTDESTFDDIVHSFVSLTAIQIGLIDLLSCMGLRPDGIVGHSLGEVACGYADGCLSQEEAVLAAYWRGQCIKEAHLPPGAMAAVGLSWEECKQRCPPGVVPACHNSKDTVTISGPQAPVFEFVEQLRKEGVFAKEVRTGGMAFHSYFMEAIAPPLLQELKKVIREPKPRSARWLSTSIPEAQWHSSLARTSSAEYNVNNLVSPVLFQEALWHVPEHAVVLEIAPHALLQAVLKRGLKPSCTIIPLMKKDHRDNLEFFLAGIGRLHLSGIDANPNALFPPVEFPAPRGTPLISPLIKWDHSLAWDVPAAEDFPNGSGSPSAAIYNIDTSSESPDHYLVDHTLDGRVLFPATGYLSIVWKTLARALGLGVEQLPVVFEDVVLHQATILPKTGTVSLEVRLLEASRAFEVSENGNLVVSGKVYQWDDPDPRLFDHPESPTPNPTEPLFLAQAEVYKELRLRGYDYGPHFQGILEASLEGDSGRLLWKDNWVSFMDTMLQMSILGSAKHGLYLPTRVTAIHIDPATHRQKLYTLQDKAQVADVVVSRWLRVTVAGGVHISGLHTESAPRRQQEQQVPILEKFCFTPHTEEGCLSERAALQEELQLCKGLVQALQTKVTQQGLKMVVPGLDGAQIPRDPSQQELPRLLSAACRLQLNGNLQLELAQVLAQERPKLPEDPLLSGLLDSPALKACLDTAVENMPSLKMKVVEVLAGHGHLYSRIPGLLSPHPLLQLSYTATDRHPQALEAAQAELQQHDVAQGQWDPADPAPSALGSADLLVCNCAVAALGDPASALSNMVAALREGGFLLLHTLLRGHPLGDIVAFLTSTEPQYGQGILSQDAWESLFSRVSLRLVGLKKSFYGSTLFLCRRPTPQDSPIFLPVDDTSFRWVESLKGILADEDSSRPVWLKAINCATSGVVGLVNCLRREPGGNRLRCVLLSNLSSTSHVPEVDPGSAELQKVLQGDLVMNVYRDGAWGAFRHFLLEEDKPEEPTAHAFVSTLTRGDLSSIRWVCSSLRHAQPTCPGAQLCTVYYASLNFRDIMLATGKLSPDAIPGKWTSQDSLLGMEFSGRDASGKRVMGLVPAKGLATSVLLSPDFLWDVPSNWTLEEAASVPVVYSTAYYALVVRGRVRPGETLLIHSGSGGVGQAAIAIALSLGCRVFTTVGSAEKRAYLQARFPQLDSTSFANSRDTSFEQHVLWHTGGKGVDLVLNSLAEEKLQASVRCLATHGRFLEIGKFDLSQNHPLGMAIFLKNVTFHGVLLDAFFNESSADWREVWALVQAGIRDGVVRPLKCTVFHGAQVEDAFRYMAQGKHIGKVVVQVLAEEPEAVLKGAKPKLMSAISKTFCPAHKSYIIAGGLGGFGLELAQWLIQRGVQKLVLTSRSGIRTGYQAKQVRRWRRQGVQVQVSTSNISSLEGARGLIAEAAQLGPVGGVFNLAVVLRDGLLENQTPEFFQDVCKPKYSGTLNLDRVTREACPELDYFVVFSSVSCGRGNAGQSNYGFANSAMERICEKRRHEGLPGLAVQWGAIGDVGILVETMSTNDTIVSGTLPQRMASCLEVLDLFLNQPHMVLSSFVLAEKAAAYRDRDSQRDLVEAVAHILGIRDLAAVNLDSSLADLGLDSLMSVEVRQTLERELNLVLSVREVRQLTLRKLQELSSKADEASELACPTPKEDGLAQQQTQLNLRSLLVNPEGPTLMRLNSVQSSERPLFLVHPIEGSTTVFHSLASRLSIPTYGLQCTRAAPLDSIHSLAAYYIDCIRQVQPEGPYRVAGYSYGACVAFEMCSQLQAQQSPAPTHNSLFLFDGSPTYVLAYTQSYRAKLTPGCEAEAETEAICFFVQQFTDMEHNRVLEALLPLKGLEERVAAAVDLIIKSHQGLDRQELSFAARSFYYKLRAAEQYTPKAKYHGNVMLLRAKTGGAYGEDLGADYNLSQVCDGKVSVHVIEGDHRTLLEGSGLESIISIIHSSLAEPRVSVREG

Compound: CCCCCCCCC1(C)SC(=O)C=C1OCC(=O)Nc1ccc(Cl)cc1 (stereo not shown) [Compound C31]
- IC50 (Type I cytosolic FAS): 17.8 µM
- effect on 14C-malonate incorporation into lipids of isolated mitochondria (mitochondrial FAS [1]): inhibited the incorporation of malonate into lipids in a dose-dependent manner
- IC50, inhibition of mitochondrial FAS (14C-malonate incorporation) (mitochondrial FAS [2]; isolated mitochondria): less than 4 μg per mL
- effect on 14C-malonate incorporation into mitochondrial fatty acids (mitochondrial FAS [2]; mitochondria isolated from rat liver): dose-dependent inhibitory effect
- mitochondrial depolarization (JC-1 staining) [3]: depolarization of the mitochondria in the SKOV3 human ovarian cancer cells which is dose-dependent
- CC50 (Human hepatoma cell line): 5 µg/mL (≈ 12.2 µM)
- CC50 [4]: 225 µg/mL and 562 µM
